Test results: US20230124142A1, “NEW THERAPEUTIC TARGETS WITH AN ANTI-INFLAMMATORY AND ANTI-INTERFERON EFFECT” (UNIVERSITÉ PARIS CITÉ, priority 2020, published 2023)

What was measured:
[1] = tested on: peripheral blood mononuclear cells (PBMCs); assay: Cell toxicity on PBMCs, ATP quantification with CellTiter Glo; format: cell-based, human; settings: cGAMP 24 h
[2] = tested on: THP1-Dual human monocyte cell line; assay: Cell toxicity on THP1-Dual, ATP quantification with CellTiter Glo; format: cell-based; settings: cGAMP 24 h
[3] = tested on: neurones infected by the prions; format: cell-based
activated immune cells = assay: Secretion of inflammatory cytokines and interferons by activated immune cells placed in contact with ROCK inhibitor; format: cell-based; settings: compared with activated immune cells not placed in contact with the inhibitor
[4] = tested on: THP1-Dual human monocyte cell line; assay: Interferon response of cGAMP-activated THP1-Dual cells, luciferase; settings: inhibitor 1 h before cGAMP 3 μg/ml, 24 h, luciferase (FIG. 22B, 23B)
[5] = tested on: peripheral blood mononuclear cells (PBMCs); assay: Interferon production by cGAMP-activated PBMCs, STING-37 reporter cell line; settings: inhibitor 1 h before cGAMP 3 μg/ml, 24 h, STING-37 reporter (FIG. 22A, 23A)
[6] = tested on: HEK293 non-immune cell line; assay: Interferon production by cGAMP-activated HEK293 non-immune cells (STING-37), luciferase; settings: inhibitor at 1 μM (FIG. 23C)
[7] = tested on: peripheral blood mononuclear cells (PBMCs) of healthy donors; assay: Secretion of inflammatory cytokines and interferons by PBMCs after TLR7/8 (R848) stimulation, LegendPlex
[8] = tested on: monocytes of healthy donors; assay: Intracellular TNFα production in monocytes after TLR7/8 (Resiquimod-R848) stimulation, flow cytometry; format: cell-based, human; settings: inhibitor 1 h before R848 (TLR7/8), 16 h, flow cytometry (FIG. 1, 2)
Procedure: (§1) The cells were rinsed in PBS then incubated with a viability dye (Zombie Aqua, Biolegend) for 30 min at ambient temperature. After washing, the cells were resuspended in PBS containing 2% SVF and 2 mM EDTA then labelled with the APC Vio770 anti-CD14 (clone REA599) antibody from Miltenyi Biotec, used at 1/100°. […] Data acquisition was carried out on the Canto 11 flow cytometer using the Diva software (BD Biosciences, San Jose, Calif.). The Kaluza software was used to analyze the data.

[9] = tested on: peripheral blood mononuclear cells (PBMCs) of healthy donors; assay: Toxicity on PBMCs (CellTiter-Glo), TLR7/8 stimulation; format: cell-based, human; settings: TLR 7/8 stimulation, 24 h, CellTiter-Glo (FIG. 4)
Procedure: Test for toxicity of the compounds on the peripheral blood mononuclear cells (PBMCs).
(§2) After 24 h of cell culture, the cell viability was determined using the CellTiter-Glo reagent (Promega), which evaluates the amount of ATP by luminescence using the EnSpire.

[10] = tested on: monocytes of healthy donors; assay: Intracellular TNFα production in monocytes after TLR4 (LPS) stimulation, flow cytometry; format: cell-based, human; settings: inhibitor 1 h before LPS (TLR4) 100 ng/ml, 16 h, flow cytometry (FIG. 5)
Procedure: (§3) The cells were rinsed in PBS then incubated with a viability dye (Zombie Aqua, Biolegend) for 30 min at ambient temperature. After washing, the cells were resuspended in PBS containing 2% SVF and 2 mM EDTA then labelled with the APC Vio770 anti-CD14 (clone REA599) antibody from Miltenyi Biotec, used at 1/100°. […] The cells were fixed for 20 min at ambient temperature with 250 μL Inside Fix solution then labelled in 100 μL Inside Perm solution containing the PE anti-TNFα (Miltenyi Biotec) and/or APC anti-IL-1β (Miltenyi Biotec) antibody at 1/50° for 30 min at ambient temperature. Data acquisition was carried out on the Canto II flow cytometer using the Diva software (BD Biosciences, San Jose, Calif.). The Kaluza software was used to analyze the data.

[11] = tested on: monocytes of healthy donors; assay: Intracellular TNFα production in monocytes after TLR2 (lipoteichoic acid, LTA) stimulation, flow cytometry; format: cell-based, human; settings: inhibitor 1 h before LTA (TLR2) 1 μg/ml, 16 h, flow cytometry (FIG. 6)
Procedure: as §3

[12] = tested on: peripheral blood mononuclear cells (PBMCs) of healthy donors; assay: Secretion of inflammatory cytokines and interferons by PBMCs after TLR4 stimulation, LegendPlex; format: cell-based, human; settings: 24 h, LegendPlex (FIG. 7)
[13] = tested on: peripheral blood mononuclear cells (PBMCs) of healthy donors; assay: Toxicity on PBMCs (CellTiter-Glo), TLR4 stimulation; format: cell-based, human; settings: 24 h, CellTiter-Glo (FIG. 8)
Procedure: as §2

[14] = tested on: monocytes of healthy donors; assay: Intracellular IL1β and TNFα in monocytes after inflammasome activation by uric acid crystals (MSU, gout model), flow cytometry; format: cell-based, human
Procedure: as §1, with “II” for “11”

[15] = tested on: plasmacytoid dendritic cells (pDC) of healthy donors; assay: Intracellular IFNα and TNFα in plasmacytoid dendritic cells in response to HIV, flow cytometry; format: cell-based, human; settings: AT-2-inactivated HIV-1MN, 16 h
Procedure: The cells were rinsed in PBS then incubated with a viability dye (Zombie Aqua, Biolegend) for 30 min at ambient temperature. After washing, the cells were resuspended in PBS containing 2% SVF and 2 mM EDTA then labelled with the APC Vio770 anti-CD14 (clone REA599) antibody from Miltenyi Biotec, used at 1/100°. For the intracellular labelling of TNFα and IFNα, the “Inside Stain” kit (Miltenyi Biotec) was used according to the manufacturer's protocol. The cells were fixed for 20 min at ambient temperature with 250 μL Inside Fix solution then labelled in 100 μL Inside Perm solution containing the APC anti-TNFα (Miltenyi Biotec) and/or PE anti-IFNα (Miltenyi Biotec) antibody at 1/50° for 30 min at ambient temperature. Data acquisition was carried out on the Canto II flow cytometer using the Diva software (BD Biosciences, San Jose, Calif.). The Kaluza software was used to analyze the data.

[16] = tested on: peripheral blood mononuclear cells (PBMCs) of healthy donors; assay: Secretion of inflammatory cytokines and interferons by PBMCs in response to HIV, LegendPlex; format: cell-based, human; settings: 24 h, LegendPlex (FIG. 13)
[17] = tested on: peripheral blood mononuclear cells (PBMCs) of healthy donors; assay: Toxicity on PBMCs (CellTiter-Glo), HIV; format: cell-based, human; settings: PBMCs of healthy donors infected with HIV, 24 h, CellTiter-Glo (FIG. 14)
Procedure: as §2

[18] = tested on: peripheral blood mononuclear cells (PBMCs) of healthy donors; assay: Interferon secretion by R848-stimulated PBMCs, inhibitor before, during or after stimulation, STING-37 reporter cell line; format: cell-based, human
[19] = tested on: monocytes of patients suffering from juvenile idiopathic arthritis; assay: Spontaneous TNFα production by monocytes of juvenile idiopathic arthritis patients, SIMOA (digital ELISA); format: cell-based, human; settings: inhibitor 24 h, SIMOA (FIG. 16)
Procedure: The assay of the TNFα secreted by the monocytes of a patient suffering from juvenile idiopathic arthritis was carried out by SIMOA (digital ELISA).

[20] = tested on: immune cells (PBMCs and purified monocytes) of healthy donors; assay: Production of inflammatory cytokines by PBMCs and purified monocytes after TLR2/4 stimulation by bacterial agents; format: cell-based, human; settings: TLR 2/4 stimulation by lipoteichoic acid/LPS
[21] = PBMCs of healthy donors, inhibitor 1 h before R848 (TLR7/8), 24 h, LegendPlex (FIG. 3)

## Cc1cncc2cccc(S(=O)(=O)N3CCCNCC3C)c12 (stereo not drawn) [dimethylfasudil]
[1]
  viability of the PBMCs: without affecting the viability
[2]
  viability of the THP1-Dual: without affecting the viability
[3]
  level of TNFα in the culture medium: re-establishes a “normal” level
Activated immune cells
  secretion of the inflammatory cytokines (TNFα, IL-1β, IL6, MCP1 (CCL2)) and of the interferons (IFN): inhibits the secretion
[4]
  production of interferons (IFN) induced by the cGAMP: blocks the production of interferons (IFN) induced by the cGAMP according to a dosage effect starting from 1 μM
[5]
  production of interferons (IFN) induced by the cGAMP: blocks the production of interferons (IFN) induced by the cGAMP according to a dosage effect starting from 1 μM
[6]
  production of interferon induced by the STING ligand: does not block
[7]; human PBMCs incubated with inhibitor before R848 stimulation
  production of TNFα and of pro-inflammatory cytokines such as IL-6, IL-1β and the interferons induced by the TLR7/8 stimulation: inhibits the production

## BX912
[8]
  intracellular production of inflammatory cytokines (TNFα): inhibits, according to a dosage effect
[9]
  toxicity on the immune cells (PBMCs): no toxicity
[10]
  production of inflammatory cytokines (TNFα): inhibits, according to a dosage effect
[11]
  production of inflammatory cytokines (TNFα): inhibits, according to a dosage effect
[12]
  secretion of the inflammatory cytokines (IL-6, IL-1β, TNFα, GM-CSF, IL-10): inhibits the secretion
  secretion of the interferons (IFNI2/3, IFNβ, IFNg): inhibits the secretion
[13]
  toxicity on PBMCs: no toxicity
[14]; activation of the inflammasome by uric acid crystals (mimicking gout)
  production of inflammatory cytokines: capable of inhibiting the production of inflammatory cytokines
[14]; uric acid crystals (MSU) 50 μg/ml, 16 h, gout model (FIG. 9)
  intracellular production of IL1β: inhibits the intracellular production
[14]; uric acid crystals (MSU) 50 μg/ml, 16 h, gout model (FIG. 10)
  production of TNFα: inhibits the production
[15]; flow cytometry (FIG. 11)
  intracellular production of interferon IFNα: inhibits the intracellular production
[15]; flow cytometry (FIG. 12)
  production of TNFα: inhibits the production
[16]
  secretion of the inflammatory cytokines (IL-6, IL-1β, TNFα, IP10): inhibits the secretion
  secretion of the interferons (IFNα2, IFNβ, IFNI1): inhibits the secretion
[17]
  toxicity on PBMCs: no toxicity
[18]; inhibitor during the TLR 7/8 stimulation, STING-37 reporter (FIG. 15B)
  secretion of interferons: blocking
[18]; inhibitor in a curative manner, 1 h after TLR 7/8 stimulation, STING-37 reporter (FIG. 15C)
  secretion of interferons: blocking
[18]; inhibitor in a preventive manner, 1 h before TLR 7/8 stimulation, STING-37 reporter (FIG. 15A)
  secretion of interferons: blocking
[19]
  spontaneous production of TNFα: inhibits the spontaneous production
[20]
  production of inflammatory cytokines: capable of inhibiting the production of inflammatory cytokines
[7]; [21]
  secretion of the inflammatory cytokines (IL-6, IL-1β, TNFα, IP10, GM-CSF, IL-10): inhibits the secretion
  secretion of the interferons (IFNI1, IFNI2/3, IFNβ, IFNg): inhibits the secretion
